Measured values published in PMC4836865 (Chemical Science, 2015).

How the values were obtained:
Type in all cases: biochemical
MelBEc [1] = biological target: T1, MelBEc (Escherichia coli, UniProt P02921); test: Trp to dansyl FRET, reversed by melibiose; details: solubilised in NDT-C11; fluorescent ligand displaced by melibiose
[2] = biological target: MelBSt (melibiose permease of Salmonella typhimurium) (Salmonella enterica, UniProt P30878); test: melibiose reversal of Trp to D2G FRET; details: solubilised in DDM or NDT-C11; displaces D2G
Chain of MelBSt (melibiose permease of Salmonella typhimurium) (P30878 whole entry): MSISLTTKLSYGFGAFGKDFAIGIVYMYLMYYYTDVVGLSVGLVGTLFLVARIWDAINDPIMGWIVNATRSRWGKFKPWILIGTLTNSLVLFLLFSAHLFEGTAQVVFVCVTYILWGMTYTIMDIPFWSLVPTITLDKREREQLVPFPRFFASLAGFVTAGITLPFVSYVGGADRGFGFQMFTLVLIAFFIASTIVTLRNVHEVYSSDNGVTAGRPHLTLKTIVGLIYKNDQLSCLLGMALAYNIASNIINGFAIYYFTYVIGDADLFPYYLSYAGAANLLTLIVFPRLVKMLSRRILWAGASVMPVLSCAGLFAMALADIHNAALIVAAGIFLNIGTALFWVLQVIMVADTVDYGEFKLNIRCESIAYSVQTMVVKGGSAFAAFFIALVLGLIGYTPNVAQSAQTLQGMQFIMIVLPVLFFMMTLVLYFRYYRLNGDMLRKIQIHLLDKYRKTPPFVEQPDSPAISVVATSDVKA

MelBEc [3] = biological target: T1, MelBEc; test: melibiose reversal of Trp to D2G FRET; details: solubilised in NDT-C11; displaces D2G

T1 sequence (P02921 2-473): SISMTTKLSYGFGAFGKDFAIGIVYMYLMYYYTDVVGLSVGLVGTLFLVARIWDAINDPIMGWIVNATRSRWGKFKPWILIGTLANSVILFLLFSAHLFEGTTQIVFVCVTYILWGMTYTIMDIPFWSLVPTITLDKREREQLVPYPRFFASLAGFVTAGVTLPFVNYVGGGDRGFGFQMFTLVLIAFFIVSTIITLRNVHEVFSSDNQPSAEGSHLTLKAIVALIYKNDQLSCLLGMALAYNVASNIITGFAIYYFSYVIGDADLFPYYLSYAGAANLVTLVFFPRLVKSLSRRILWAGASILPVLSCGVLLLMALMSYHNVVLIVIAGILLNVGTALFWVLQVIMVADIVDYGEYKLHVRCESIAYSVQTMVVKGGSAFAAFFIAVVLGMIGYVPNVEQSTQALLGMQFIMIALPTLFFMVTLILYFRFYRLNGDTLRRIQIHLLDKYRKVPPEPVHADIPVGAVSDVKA

CN(C)c1cccc2c(S(=O)(=O)NCCS[C@@H]3O[C@H](CO)[C@H](O)[C@H](O)[C@H]3O)cccc12 [2′-(N-dansyl)aminoalkyl-1-thio-β-D-galactopyranoside]
Trp to dansyl FRET, reversed by melibiose (MelBEc [1]): FRET response of the D^2G bound MelB to melibiose or water addition

OC[C@H]1O[C@H](OC[C@H]2OC(O)[C@H](O)[C@@H](O)[C@@H]2O)[C@H](O)[C@@H](O)[C@H]1O (stereo partly drawn) [melibiose]
melibiose reversal of Trp to D2G FRET [2]: MelBSt solubilized in DDM or NDT-C11 was subjected to melibiose reversal of Trp
melibiose reversal of Trp to D2G FRET (MelBEc [3]): NDT-C11 is capable of maintaining the melibiose binding activity of both MelBSt and MelBEc
